Measured values taken from ChEMBL document CHEMBL1157539, “Thousands of chemical starting points for antimalarial lead identification” (Nature, 2010).

Each compound was assayed on Plasmodium falciparum (assay: GSK_TCMDC: Inhibition of Plasmodium falciparum 3D7 in whole erythrocytes, using parasite LDH activity as an index of growth.). Conditions: Plasmodium falciparum, 3D7.
Type: functional, organism-based

Structure (SMILES) | XC50 [nM]
CCOC(=O)CCCOc1c(OC)cc(Cc2cnc(N)nc2N)cc1OC | 778
CC1CCCN1Cc1ccc(-c2ccc3c(=O)cc(CCc4cccc(F)c4F)n(CC(=O)N(C)Cc4ccc(-c5ccc(C(F)(F)F)cc5)cc4)c3n2)cc1 (stereo unspecified) | 823
COc1ccc(Cl)cc1NC(=O)Nc1cc(C)nc2ccccc12 | 287
Cc1cccc2nc(-c3cccc(-c4ccc(NC(=O)c5ccoc5)cc4)c3)[nH]c12 | 703
COc1ccc2nc3cc(Cl)ccc3c(NCCCCN)c2c1 | 732
CC(Cc1ccc(OCCOc2ccccc2)cc1)NCC(O)c1cccc(C(F)(F)F)c1 (stereo unspecified) | 968
Clc1ccc(-c2nc(-c3ccncc3)c[nH]2)cc1Cl | 1060
CCCNC(=O)C1CCN(C(c2ccc(Cl)cc2)c2ccc(Cl)cc2)CC1 | 479
COc1cc2c(cc1OC)CN(c1cc(N)c3cc(OC)c(OC)cc3n1)CC2 | 552
Cc1cc(N[C@@H](Cc2ccccc2)C(=O)Nc2ccccc2)nc(NCCc2ccc(F)cc2)n1 | 860
CCCNCc1ccc(-c2ccc(CN(CC3CCCO3)C(=O)C3CC(=O)c4ccccc43)cc2)nc1 (stereo unspecified) | 860
COc1ccc(NC(=O)CCNc2cc(C)nc(NCc3cccc(C)c3)n2)cc1 | 1090
CC[C@H]1CN2CC[C@H]1C[C@H]2[C@H](O)c1ccnc2ccc(C#N)cc12 | 147
C[C@H](Cc1ccc(OCCNC[C@H](O)c2cccc(Cl)c2)cc1)NC[C@H](O)c1ccc(Cl)c(Cl)c1 | 958
Nc1ccc(-c2nc3cc(-c4ccc5[nH]c(-c6ccc(N)cc6)nc5c4)ccc3[nH]2)cc1 | 129
COc1ccc(-c2ccc(NC(=O)c3cccc(Cl)c3)c(F)c2)cc1CN1CCCN(C)CC1 | 679
Cc1ccc(-c2ccc3c(c2)C=C(C(=O)NC2CCN(CCNC(=O)c4cccs4)CC2)CCC3)cc1 | 227
O=C(NCC1CCN(CC2CCCCC2)C1)c1cc(-c2cccc(C(F)(F)F)c2)cs1 (stereo unspecified) | 738
Cc1sc2nc(CSc3ccccc3)nc(N3CCN(CC(=O)N4CCCC4)CC3)c2c1C | 1260
Cc1ccc(S(=O)(=O)n2cc(-c3ccnc(N)c3)c3cc(Br)cnc32)cc1 | 896
c1ccc(C2CCC(N3CCC(N4CCN(c5ccccc5)CC4)CC3)CC2)cc1 (stereo unspecified) | 764
Cc1c(C)c2c(c(C)c1O)CC[C@@](C)(C(=O)NC1CCC(CN3CCC(c4c[nH]c5ccccc45)CC3)CC1)O2 (stereo partly specified) | 965
CN(C)CCCNC(=O)c1ccccc1Sc1ccccc1C#N | 1140
Cc1ccc(Nc2nc(C)cc(NC3CCCC3)n2)cc1 | 292

Structure (SMILES) | XC50 [nM]
COc1ccc(Nc2nccc(N3CCC(NS(=O)(=O)c4ccc(NC(C)=O)cc4)C3)n2)cc1 (stereo unspecified) | 795
O=C(NC1CCCCC1)N(Cc1ccc(-c2cccc(CNC3CCCC3)c2)cc1)C1CCN(Cc2ccccc2)CC1 | 785
CS(=O)(=O)c1ccc(CCNCc2ccc(-c3ccc(CN(C(=O)C4CC(=O)c5ccccc54)C4Cc5ccccc5C4)cc3)nc2)cc1 (stereo unspecified) | 858
Clc1ccc(Nc2nc3ccc(Cl)cc3nc2Nc2ccc(Cl)cc2)cc1 | 133
COc1ccc2c(NN=Cc3ccc(F)cc3)ccnc2c1 | 438
CN1CCN(C(C(=O)NCc2cc(Cl)cc(Cl)c2)c2ccccc2-c2ccsc2)CC1 (stereo unspecified) | 936
O=C(NCCN1CCCc2ccccc21)C1CCN(c2nc(-c3ccc(Cl)cc3)no2)CC1 | 695
CC(=O)NCCNc1nccc(N2CCc3ncnc(Nc4ccc(OCc5ccccn5)c(Cl)c4)c3C2)n1 | 822
Nc1ccnc2ccc(NC(=O)CCCCCc3ccccc3)cc12 | 860
FC(F)(F)c1ccc2[nH]ccc(=NN=Cc3ccccc3)c2c1 | 1170
Cc1ccc(OCCCCON2C(=N)N=C(N)NC2(C)C)cc1C | 3.2
O=C(Nc1ccc(Cl)cc1)Nc1cccc(-c2cccc(-c3nc4cc(C(F)(F)F)ccc4[nH]3)c2)c1 | 227
COc1ccc(-c2cnn3ccc(Nc4cc(OC)c(OC)c(OC)c4)nc23)cc1OC | 650
O=C(/C=C/c1ccc(Cl)c(Cl)c1)NCCCCCN1CCC(NC(=O)Nc2cccc(C(F)(F)F)c2)CC1 | 697
N=C(N)NCCN(Cc1ccccc1)c1ccccc1 | 345
O=C(/C=C/c1cccc(OC(F)(F)F)c1)NCCCCCN1CCC(c2c[nH]c3ccccc23)CC1 | 958
CCNc1cc(C(=O)N[C@@H](Cc2ccccc2)[C@H](O)CNC(CC)c2cccc(Cl)c2)cc(N2CCCC2=O)c1 (stereo partly specified) | 31.6
CCOc1cc(C(=O)NCc2cc(Cl)cc(Cl)c2)ccc1-c1nc2cc(Cl)ccc2[nH]1 | 730
CC(=O)c1ccc(-c2ccc(C(=O)NCCCCN3CCC(c4ccc5c(c4OCC(N)=O)CCCC5)CC3)cc2)s1 | 893
O=S(=O)(Nc1cc2c(cc1O)CCNCC2)c1ccc(-c2ccc(Cl)cc2)cc1 | 980
NOCCCCOc1ccc(Br)cc1 | 189
CCCCc1cc(N2CCC(NC(C)=O)C2)nc(Nc2ccc(C)cc2)n1 (stereo unspecified) | 866
O=C(NCc1cccc(F)c1)Nc1cccc(-c2ccc(-c3nc4cc(F)ccc4[nH]3)cc2)c1 | 1050
CC(=O)N(Cc1cccc(-c2cccc(CNCCc3ccccc3)c2)c1)C1CCN(Cc2ccccc2)CC1 | 670

Structure (SMILES) | XC50 [nM]
Cc1cccc2nc(-c3cccc(-c4ccc(CN5CCN(CCO)CC5)cc4)c3)[nH]c12 | 823
COc1ccc2nccc(N3CCC(NCCNCc4cc5c(cn4)OCCO5)C3)c2n1 (stereo unspecified) | 578
Nc1c2ccccc2nc2cc(C(F)(F)F)ccc12 | 842
O=C(Nc1ccc(Cl)c(Cl)c1)Nc1ccc(F)c([N+](=O)[O-])c1 | 696
CCOc1ccc(CCC(=O)O)cc1OCC | 1030
C=C[C@H]1CN2CC[C@@H]1C[C@H]2[C@H](O)c1cc(-c2ccc(F)cc2)nc2ccc(OC)cc12 | 169
Cc1ccc(C(=O)Nc2ccc(Nc3ccnc4cc(-c5nccs5)ccc34)cc2O)cc1 | 47.8
CC(Cc1ccc(NC(=O)CCNCc2ccccc2)cc1)NCCc1cccc(Cl)c1 (stereo unspecified) | 147
COc1cc2nc(N3CC(C)N(C(=O)Cc4ccc(-c5ccccc5)cc4)C(C)C3)nc(N)c2cc1OC (stereo unspecified) | 796
O=C(CN1CCN(C(=O)c2ccco2)CC1)Nc1ccc(Br)cc1Cl | 773
CON(CCCN(C)C)C(=N)N | 1080
CCN(CC)C(=O)C1CCN(C(C(=O)N2CCN(CC(=O)N3CCCC3)CC2)c2cc3ccccc3o2)CC1 (stereo unspecified) | 707
CC[C@H]1CN2CC[C@H]1C[C@H]2[C@H](O)c1cc(-c2ccccc2C(F)(F)F)nc2ccc(OC)cc12 | 234
CC(C)c1cc2c(cc1O)C(Cc1ccccc1Cl)N(C)CC2 (stereo unspecified) | 732
O=C1COc2ccc3ccccc3c21 | 701
C=CCn1c(SCc2c(C)noc2C)nc2scc(-c3cccs3)c2c1=O | 1100
COc1c(C2CCN(CCCCNC(=O)c3noc(-c4ccc(C#N)cc4)n3)CC2)ccc2c1CCCC2 | 776
Cc1cccc(-c2c(C)nc(N)nc2N)c1 | 1150
CC(=O)Nc1nc(C(=O)Nc2ccc(-c3cccc(-c4nc5cc(F)ccc5[nH]4)c3)cc2)cs1 | 292
Cc1ccc(NC(=O)c2ccc(CN3CCCN(Cc4cccc(Cl)c4)CC3)cc2)cc1C | 1210
CC[C@H]1CN2CC[C@H]1C[C@H]2[C@H](O)c1cc(-c2ccc(F)cc2C)nc2ccc(OC)cc12 | 157
Cc1ccc(Cn2c(N3CCC(C(=O)NCc4cccs4)CC3)nc3ccccc32)cc1 | 748
CS(=O)(=O)Nc1ccc2c(C3CCN(CC4CCN(C(=O)/C=C/c5ccc(Cl)c(Cl)c5)CC4)CC3)c[nH]c2c1 | 761
